This is an account of results in patent publication US20200179312A1, “ANALOGUES OF CYSTEAMINE AS THERAPEUTIC AGENTS FOR CYSTIC FIBROSIS” (I.E.R.F.C. EUROPEAN INSTITUTE FOR CYSTIC FIBROSIS RESEARCH, priority 2018, published 2020).

Test [1] relates to BECN1, SQSTM1/p62, (phospho)p42/44 MAPK. Description: Immunoblot of autophagy and inflammation markers in CFBE cells. Particulars: 0.1 μM. It is filed as cell-based. As to the method:
Cell lines experiments. CFBE41l- and 16HBE14o-cells were cultured in Minimum Essential Medium (MEM) with Earle's salt, 200 mM L-Glutamine, 10% FBS and penicillin/streptomycin. […]
(§1) The proteins of cell lines lysates or lung or small intestine homogenates, obtained from treated and untreated cells or mice, were quantified by a Bio-Rad protein assay to ensure equal protein loading before immunoblot analysis. Fifty micrograms of proteins were loaded in each lane. Antibodies against SQSTM1, (Sigma Aldrich,P0067) 1:1000, BECN1 (Abcam, ab58878), 1:1000, CFTR clone CF3 (Abcam, ab2784) 1:1000 or anti-CFTR antibody 660 1:1000, Phospho-p44/42 MAPK (Erk1/2) (Thr202/Tyr204) (Cell Signaling Technology, #91101) 1:1000, TG2 (CUB7402, NEOMARKER) 1:1000 were used. Normalization was performed by probing the membrane with anti-β-actin (Cell Signaling, #4970) 1:1000 or anti-α-tubulin (Cell Signaling Technology, 2148) 1:1000.

In test [2] the target is T1, CFTR (Mus musculus, UniProt P26361, DEL508-508).
T1 construct: the Ussing chamber experiments (on small intestinal tissues); from tissue; host or cells: small intestine (Ussing chamber); lung and small intestine homogenates (immunoblot) of CftrF508del mice
T1 sequence (P26361 with tags, fused parts or gaps DEL508-508): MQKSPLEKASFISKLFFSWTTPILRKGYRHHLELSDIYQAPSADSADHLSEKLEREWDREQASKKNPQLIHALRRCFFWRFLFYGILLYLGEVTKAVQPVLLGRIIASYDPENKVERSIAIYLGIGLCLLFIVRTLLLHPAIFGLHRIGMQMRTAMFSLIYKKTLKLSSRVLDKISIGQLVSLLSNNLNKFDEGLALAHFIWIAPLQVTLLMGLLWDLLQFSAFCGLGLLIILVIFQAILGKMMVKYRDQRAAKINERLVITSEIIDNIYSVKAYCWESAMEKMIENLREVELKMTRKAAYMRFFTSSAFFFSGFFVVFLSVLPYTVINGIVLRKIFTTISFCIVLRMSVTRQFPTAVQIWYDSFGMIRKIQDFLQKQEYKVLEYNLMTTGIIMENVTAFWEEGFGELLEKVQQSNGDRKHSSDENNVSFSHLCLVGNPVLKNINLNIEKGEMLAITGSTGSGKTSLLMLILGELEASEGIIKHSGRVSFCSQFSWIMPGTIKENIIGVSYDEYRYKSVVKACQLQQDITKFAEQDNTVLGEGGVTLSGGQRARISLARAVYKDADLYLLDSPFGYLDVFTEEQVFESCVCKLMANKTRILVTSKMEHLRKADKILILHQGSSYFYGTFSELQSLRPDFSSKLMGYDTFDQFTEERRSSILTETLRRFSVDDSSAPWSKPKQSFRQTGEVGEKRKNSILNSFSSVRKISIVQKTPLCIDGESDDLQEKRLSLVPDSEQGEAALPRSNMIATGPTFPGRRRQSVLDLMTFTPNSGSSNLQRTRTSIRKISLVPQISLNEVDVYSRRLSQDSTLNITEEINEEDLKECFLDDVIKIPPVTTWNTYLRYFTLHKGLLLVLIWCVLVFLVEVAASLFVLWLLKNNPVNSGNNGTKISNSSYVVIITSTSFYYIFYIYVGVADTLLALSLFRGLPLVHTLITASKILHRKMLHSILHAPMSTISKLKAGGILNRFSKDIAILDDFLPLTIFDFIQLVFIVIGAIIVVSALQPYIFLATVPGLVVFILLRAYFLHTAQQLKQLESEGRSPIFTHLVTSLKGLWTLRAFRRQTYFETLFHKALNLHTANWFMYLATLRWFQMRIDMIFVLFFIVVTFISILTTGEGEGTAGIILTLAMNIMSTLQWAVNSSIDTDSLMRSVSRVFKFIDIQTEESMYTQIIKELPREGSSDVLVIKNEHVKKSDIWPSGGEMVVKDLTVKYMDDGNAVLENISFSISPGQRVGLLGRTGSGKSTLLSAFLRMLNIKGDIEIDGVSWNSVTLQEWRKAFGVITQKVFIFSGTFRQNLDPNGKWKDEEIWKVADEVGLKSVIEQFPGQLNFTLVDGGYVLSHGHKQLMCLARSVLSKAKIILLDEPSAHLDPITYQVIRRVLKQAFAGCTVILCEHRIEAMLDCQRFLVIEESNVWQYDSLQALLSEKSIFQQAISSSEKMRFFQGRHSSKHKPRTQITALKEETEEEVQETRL
Description: Immunoblot of CFTR protein levels in tissues of CftrF508del mice. The format is in vivo. As to conditions: i.p. 5 d, then 20 d of wash out, lung and small intestinal tissue. The source says:
(§2) CF mice homozygous for the delF508-CFTR mutation (abbreviated CftrF508del) in the 129/FVB outbred background (CftrtmlEUR, F508del, FVB/129) were obtained from Erasmus Medical Center Rotterdam, The Netherlands (CF coordinated action program EU FP6 LSHM-CT-2005-018932). These studies and procedures were approved by the local Ethics Committee for Animal Welfare (IACUC No 713). Young adult CF mice and their wild-type (wt) littermates were housed in static isolator cages at the animal care specific pathogen-free facility of Charles River (Calco, Italy). CftrF508del mice were treated with daily intraperitoneal injections of cysteamine (100 μl of 0.05 M in PBS) (Sigma Aldrich, M9768) or IE1 (100 μl of 0.075-0.05-0.025-0.0125 M, in PBS) for 5 d or with cysteamine (5 d) or IE1 different concentrations followed by 10 d or 20 d of PBS alone (n=5 mice per group) (19,20).
The proteins of cell lines lysates or lung or small intestine homogenates, obtained from treated and untreated cells or mice, were quantified by a Bio-Rad protein assay to ensure equal protein loading before immunoblot analysis. Fifty micrograms of proteins were loaded in each lane. […]
In general terms: In western blotting, separated proteins are transferred to a membrane and probed.

For test [3], the target named is CFTR (Homo sapiens, UniProt P13569, DEL508-508). Description: Immunoblot detection of CFTR in CFBE cells. The format is cell-based. Also noted: expressed in transfected cells; host or cells: CFBE41o- cells. The procedure:
Cell lines experiments. CFBE41l- and 16HBE14o-cells were cultured in Minimum Essential Medium (MEM) with Earle's salt, 200 mM L-Glutamine, 10% FBS and penicillin/streptomycin. CFBE41o-cells were transfected with AF508-CFTR at 37° C. and incubated for 18 h with cysteamine (250 μM) or different concentration of IE1.
as §1

The subject of test [4] is BECN1, SQSTM1/p62, (phospho)p42/44 MAPK. Kind of test: Immunoblot of autophagy and inflammation markers in nasal primary cells. It is filed as cell-based, human. As to conditions: 0.1 μM.
Excerpt: Freshly isolated brushed nasal epithelial cells were collected by nasal brushing, as previously described (21, 21) from 10 F508del-CFTR homozygous CF patients and from 5 non-CF healthy volunteers recruited from staff at the same time points. Both patients and healthy volunteers gave written informed consent. […] Brushes with cells were immediately transferred into RPMI 1640 medium (Invitrogen) containing 1% penicillin-streptomycin (Lonza, 17-602E), in 15-ml sterilized tubes. The tubes were incubated at 37° C. for 2 h on a thermo shaker, to remove all cell from brushes; the brushes were then removed and the cells centrifuged at 800×g (2000 rpm) for 20 min. The supernatant fractions were discarded and the cell pellet treated with […] of trypsin-versene (EDTA) solution (Lonza, 17-161) for 4 min at 37° C. to disaggregate possible cell clusters. Trypsin solution was inactivated by adding 3 ml of serum-free Bronchial Epithelial cell Growth Medium BEGM (Clonetics, Lonza, CC3170). After centrifugation at 800×g (2000 rpm) for 10 min, cells were placed in CELLC T 25 flasks (Sarstedt Ltd, CS300) with 10 ml of BEGM medium. Nonspecific epithelial cells were removed during the daily cell washing and medium changes.
as §1

The subject of another test is TNF alpha, MIP-2. Kind of test: ELISA of inflammatory cytokines in tissues of CftrF508del mice. The format is in vivo. As to conditions: intestinal and lung tissues.
Excerpt: as §2
ELISA. ELISA was performed on tissue samples using standard ELISA kits (R&D Systems) for TNF-α, Mip2a. According to the manufacturer's instructions, samples were read in triplicate at 450 nm in a microplate Reader (Bio-Rad, Milan, Italy) using Microplate Manager 5.2.1 software.
Values were normalized to protein concentration evaluated by Bradford analysis.
In general terms: ELISA stands for enzyme-linked immunosorbent assay.

Test [5] concerns the target T1, CFTR. Description: Ussing chamber CFTR function in CftrF508del mice. It is filed as in vivo. The procedure: Driven by the positive outcome of the cell lines (immortalized and primary nasal cell) experiments, we next investigated the possibility that IE1 could rescue the CFTR protein and function as well as re-establish the autophagy pathway in CF mice model. To test this hypothesis, we used F508del-Cftr homozygous (CftrF508del\F508del) mice and control mice (Cftr WT). CftrF508del mice were administered intraperitoneally (i.p.) for 5 d with cysteamine or different concentrations of IE1 (FIG. 7). […] Next, CftrF508del mice were administered intraperitoneally (i.p.) for 5 d with cysteamine or with 3 different concentrations of IE1 (0.05M, 0.025M or 0.0125M) followed by 10 d or 20 d of vehicle only (FIG. 9).
CF mice homozygous for the delF508-CFTR mutation (abbreviated CftrF508del) in the 129/FVB outbred background (CftrtmlEUR, F508del, FVB/129) were obtained from Erasmus Medical Center Rotterdam, The Netherlands (CF coordinated action program EU FP6 LSHM-CT-2005-018932). These studies and procedures were approved by the local Ethics Committee for Animal Welfare (IACUC No 713). Young adult CF mice and their wild-type (wt) littermates were housed in static isolator cages at the animal care specific pathogen-free facility of Charles River (Calco, Italy). […]

CFTR (Homo sapiens, UniProt P13569, DEL508-508), sequence (P13569 with tags, fused parts or gaps DEL508-508): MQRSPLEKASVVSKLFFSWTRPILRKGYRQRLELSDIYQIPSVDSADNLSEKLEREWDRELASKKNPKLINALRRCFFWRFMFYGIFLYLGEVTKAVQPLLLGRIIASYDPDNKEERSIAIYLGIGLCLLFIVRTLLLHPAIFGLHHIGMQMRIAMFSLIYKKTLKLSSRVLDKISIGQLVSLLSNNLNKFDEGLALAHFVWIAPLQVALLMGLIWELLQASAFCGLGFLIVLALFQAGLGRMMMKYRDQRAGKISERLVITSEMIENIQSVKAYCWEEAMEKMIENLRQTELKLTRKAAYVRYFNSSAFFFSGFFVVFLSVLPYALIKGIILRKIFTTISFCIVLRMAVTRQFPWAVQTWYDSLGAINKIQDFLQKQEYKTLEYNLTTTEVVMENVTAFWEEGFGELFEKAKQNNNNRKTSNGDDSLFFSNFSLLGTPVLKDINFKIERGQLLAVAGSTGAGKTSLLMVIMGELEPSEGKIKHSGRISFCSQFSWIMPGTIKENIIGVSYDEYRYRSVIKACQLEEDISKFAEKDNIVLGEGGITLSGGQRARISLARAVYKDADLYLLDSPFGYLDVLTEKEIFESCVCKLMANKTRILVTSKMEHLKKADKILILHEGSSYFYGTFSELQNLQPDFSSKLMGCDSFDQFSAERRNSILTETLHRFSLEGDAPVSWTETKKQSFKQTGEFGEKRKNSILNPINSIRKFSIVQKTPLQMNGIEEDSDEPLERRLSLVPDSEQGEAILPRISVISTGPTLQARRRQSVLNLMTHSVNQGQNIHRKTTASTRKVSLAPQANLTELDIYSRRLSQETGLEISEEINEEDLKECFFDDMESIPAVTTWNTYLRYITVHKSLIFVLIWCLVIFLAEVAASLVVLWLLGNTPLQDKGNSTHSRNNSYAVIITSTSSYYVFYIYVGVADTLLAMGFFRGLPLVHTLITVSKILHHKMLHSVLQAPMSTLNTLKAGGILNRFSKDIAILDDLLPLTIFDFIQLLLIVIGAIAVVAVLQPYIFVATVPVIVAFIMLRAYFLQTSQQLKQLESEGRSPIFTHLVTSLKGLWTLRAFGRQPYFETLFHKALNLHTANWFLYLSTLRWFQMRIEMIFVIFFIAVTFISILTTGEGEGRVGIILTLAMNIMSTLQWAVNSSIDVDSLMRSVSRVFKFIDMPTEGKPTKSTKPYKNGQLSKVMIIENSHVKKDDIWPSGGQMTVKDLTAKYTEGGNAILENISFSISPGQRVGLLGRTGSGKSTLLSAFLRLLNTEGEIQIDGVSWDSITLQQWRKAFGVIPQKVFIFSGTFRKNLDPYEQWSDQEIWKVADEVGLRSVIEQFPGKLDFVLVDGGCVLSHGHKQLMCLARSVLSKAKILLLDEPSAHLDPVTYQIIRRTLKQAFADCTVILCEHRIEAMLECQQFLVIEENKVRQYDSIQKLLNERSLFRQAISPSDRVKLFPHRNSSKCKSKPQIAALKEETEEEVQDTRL

As to `NCCCS` [IE1, 3-aminopropane-1-thiol], the BECN1 level result in test [1] and in test [4] was “able to restore BECN1” throughout. Further, the “Inflammation biomarkers (phospho)p42/44 MAPK” value in test [1] and in test [4] was “decrease” throughout. Further, the p62 levels entry in test [1] and in test [4] was “reduce p62 levels” in each case. Also, the “Effect on (phospho)p42/44 MAPK after 48 h in presence of EGCG” value in test [1] (48 h, EGCG) is recorded as “maintained”; in test [4] (48 h, EGCG), “maintained”. In addition, the “Effect on BECN1 and p62 after 48 h with EGCG addition” value in test [1] (48 h, EGCG addition) is reported as “preserved”; in test [4] (48 h, EGCG addition) it was “preserved”. Moreover, the “Effect on (phospho)p42/44 MAPK after 48 h” value in test [1] (after 48 h) and in test [4] (after 48 h) was “completely lost” throughout. For the same compound, the “Effect on BECN1 and p62 after 48 h” value in test [1] (after 48 h) and in test [4] (after 48 h) was “disappears” each time. In addition, the “CFTR protein levels after wash out (immunoblot)” value on CFTR [2] is given as “sustaining the protein well beyond 20 d of wash out”. Moreover, the “PM-resident CFTR protein” value at CFTR [3] (0.1 μM) is “a sizeable fraction of the channel resided at the PM”. Moreover, the “PM-resident CFTR protein after washout” value is recorded as “maintained” on CFTR [3] (0.1 μM, 24 h of washout) and “decreases” at CFTR [3] (48 h of washout). Also, the “PM-resident CFTR protein after washout with EGCG added” value at CFTR [3] (48 h of washout, EGCG added) is reported as “completely maintained”. For the same compound, in the test with TNF alpha, MIP-2, the MIP-2 result is reported as “decrease principal inflammatory cytokines”. The TNF alpha result with TNF alpha, MIP-2 is recorded as “decrease principal inflammatory cytokines”. Moreover, on CFTR [5] (i.p. 5 d at 0.05M, 0.025M or 0.0125M, then 20 d of vehicle only), the “Sustaining CFTR function after wash out, compared with cysteamine” value is given as “more effective than cysteamine”. For the same compound, the “Rescue of CFTR function (Ussing chamber, small intestinal tissues)” value at CFTR [5] (i.p. for 5 d, IE1 concentration 0.05 to 0.00125) was “highly effective”.
